# According to US11266145B2, “Compositions comprising protocatechuic acid and methods of use” (priority 2020, dated 2022):
# Values joined by “and” are separate entries in the source; they are usually repeats but may differ in a detail not shown here. Equal entries are not always repeated.
# Key:
# [1] = test system: 2019 Novel Coronavirus, Isolate USA-WA1/2020 (SARS-CoV-2); assay: TCID50 test of SARS-CoV-2 recovered from PCA-coated test substrates (plastic, cloth, mesh), titrated on Vero E6 cells; format: cell-based; conditions: for log difference: versus virus control on substrate; for TCID50 Log10/mL: single replicates
# Description: The Test Article (TA) used for this study was Protocatechuic Acid (PCA). The TA was received as an off-white powder. The PCA solution was prepared to be 30% PCA w/v in Ethanol. The PCA was prepared in 5 g increments to pre-warmed 50-60 mL ethanol until dissolved for a total of 30 g PCA in the solution. Additional ethanol was then added volumetrically to be equivalent to 100 mL.
# The Test Substrates (TS) were a Plastic-type material sourced from a clear plastic laboratory bottle (Corning 431731 Octagonal bottle, 150 mL), cloth (the top layer of a N95 mask [3M 8210]), and a Sponsor-provided wire mesh to serve as a substrate for the TA. All test substrates were cut to approximately 1″×1″ in size. The test substrates were submerged into the PCA solution and dried horizontally to allow for even coating. After the substrate was thoroughly dried, the test substrate was re-submerged into the PCA solution for an additional coating.
# The Test Virus used for this study was 2019 Novel Coronavirus, Isolate USA-WA1/2020 (SARS-CoV-2). The virus was stored at approximately […] prior to use. The multiplicity of infection (MOI) was 0.01 TCID50/cell.
# The Cell Culture used for the TCID50 test was African Green Monkey Kidney Cells (Vero E6 cells) that were maintained in Dulbecco's […] with 10% fetal calf serum (DMEM-2). All growth media contained heat-inactivated fetal calf serum and antibiotics.
# The test design is shown below in Table 1.
# The Test Substrate was coated with PCA as described above. The test substrates was treated with PCA twice and allowed to fully dry overnight. In general, the time from the first coat to the next day's virus exposure was approximately 24 hours.
# The treated Test Substrate plus TA was placed into a sterile 6 well cell culture plate and approximately 100 μL total of a ≤1×10^6 TCID50/mL SARS-CoV-2 virus was such that 50 μL of virus was layered on each sides of the treated test substrates. This was the procedure used for the initial Day 1 experiment.
# For the confirmatory test, in an attempt to increase the recorded titer of the controls, the treated Test Substrate plus TA was placed into a sterile 6 well cell culture plate and the same amount of virus was layered onto both sides of the test substrate. However, an addition 50 μL of DMEM was added to each side to reduce the inactivation of the virus due to desiccation. Additionally, a glass coverslip was also added to help mitigate against evaporation.
# After application of the virus, the virus was contact with the Test substrates for approximately 10 minutes (Groups 1, 2, and 3, Control groups 7, 8, and 9), 60 minutes (Groups 4, 5, and 6, Control Groups 10, 11, and 12). Each substrate per time per test article was performed in duplicate.
# A cell culture-only control was included to indicate that cells without any TA or virus remain healthy throughout the assay. Virus-only controls without substrate was added for each timepoint to verify that the assay was performing as expected.
# After the incubation time, the treated substrate was washed with 1 mL of cell culture media (DMEM-2) for approximately 5-10 minutes within the 6 well cell culture plate and the glass cover slip removed if necessary. This was the equivalent to a 10-fold dilution. The plate was gently stirred via an orbital shaker to enhance the recovery of the virus.
# For the TCID50, the cell culture media (DMEM-2) used to wash the Test Substrate was serially diluted 10 fold and transferred into respective wells of a 96-well plate which contained a monolayer of African Green Monkey Kidney Cells (Vero E6 cells) for titration. The TCID50 assay was performed non-GLP according to IITRI Standard Operating Procedures for the assay. The TCID50 titers was calculated using the method of Reed-Meunch.
# [2] = test system: SARS CoV-2 virus; assay: Second laboratory coupon test: virus dried on PCA-coated coupons (stainless steel, K95 mask, plastic), recovered and titrated on Vero E6 cells by CPE; format: cell-based; design: : unit not given here; conditions: for Average Log10 TCID50 / Average TCID50: 3 replicates; for  / Log10 TCID50 / TCID50: single replicates; for TCID50: virus dried 45 minutes-1 h
# Description: The second laboratory utilized test coupons made of solid stainless steel, plastic and K95 mask were coated in 30% w/v PCA in 70% ethanol. Each coupon was dipped in PCA, allowed to dry, dipped again and allowed to dry with the opposite side of the coupon facing up. Once dry, 200 ul virus was added to each coupon and allowed to dry (45 minutes-1 h drying time). Virus was recovered by adding 2 ml DMEM/F12 media and washing the coupon, without scraping so as not to dislodge PCA crystals. A yellow color change in the media was observed indicating acidification of the media upon addition to the PA-coated coupon. The recovered virus was added to empty 96 well plates and diluted 1:10 down the plate. This was then added to Vero E6 cells that had grown to ˜70% confluence. Cytotoxicity controls without virus and recovery controls without PCA were also done in the same manner. After addition to the cells, plates were read at day 4 for the presence of cytopathic effect (CPE) due to viral infection of cells. Note that cytotoxicity and CPE cannot be differentiated in this assay, thus any dead cells are marked as positive.
# Cytotoxicity was seen up to 1:100 dilution for the K95, and 1:10 for the stainless steel and plastic coupons. […] The SS=stainless steel, K95=K95 mask and P=plastic. +PCA means coupons coated with PCA. No PCA (e.g. SS-1) indicates virus recovery controls with no PCA coating that had virus dried and recovered.
# [3] = cited from earlier work
# [4] = in vivo; cited from earlier work
# [5] = confirmatory run (Day 2), PCA on cloth, 10 min
# [6] = confirmatory run (Day 2), PCA on cloth, 60 min
# [7] = confirmatory run (Day 2), PCA on mesh, 10 min
# [8] = confirmatory run (Day 2), PCA on mesh, 60 min
# [9] = confirmatory run (Day 2), PCA on plastic, 10 min
# [10] = confirmatory run (Day 2), PCA on plastic, 60 min
# [11] = initial run (Day 1), PCA on cloth, 60 min incubation
# [12] = initial run (Day 1), PCA on mesh, 60 min incubation
# [13] = initial run (Day 1), PCA on plastic, 10 min incubation
# [14] = initial run (Day 1), PCA on plastic, 60 min incubation
# [15] = K95 mask coupon coated with PCA versus uncoated coupon
# [16] = K95 mask coupon coated with PCA
# [17] = plastic coupon coated with PCA versus uncoated coupon
# [18] = stainless steel coupon coated with PCA versus uncoated coupon
# [19] = stainless steel coupon coated with PCA
structure (smiles),measurement,setting,value
"O=C(O)c1ccc(O)c(O)c1 [PCA, Protocatechuic acid]",Log average,[1]; [5],4.25 TCID50 Log10/mL
same,log difference,[1]; [5],−1.13 log
same,Log average,[1]; [6],2.75 TCID50 Log10/mL
same,log difference,[1]; [6],−2.38 log
same,Log average,[1]; [7],4.63 TCID50 Log10/mL
same,log difference,[1]; [7],−1.13 log
same,Log average,[1]; [8],4.38 TCID50 Log10/mL
same,log difference,[1]; [8],−0.88 log
same,Log average,[1]; [9],4.38 TCID50 Log10/mL
same,log difference,[1]; [9],−1.13 log
same,Log average,[1]; [10],3.63 TCID50 Log10/mL
same,log difference,[1]; [10],−1.50 log
same,TCID50 Log10/mL,"[1]; confirmatory run (Day 2, extra DMEM and coverslip), PCA on cloth, 10 min",4.25 TCID50 Log10/mL
same,TCID50 Log10/mL,"[1]; confirmatory run (Day 2, extra DMEM and coverslip), PCA on cloth, 60 min",2.00 TCID50 Log10/mL and 3.50 TCID50 Log10/mL
same,TCID50 Log10/mL,"[1]; confirmatory run (Day 2, extra DMEM and coverslip), PCA on mesh, 10 min",4.75 TCID50 Log10/mL and 4.50 TCID50 Log10/mL
same,TCID50 Log10/mL,"[1]; confirmatory run (Day 2, extra DMEM and coverslip), PCA on mesh, 60 min",4.50 TCID50 Log10/mL and 4.25 TCID50 Log10/mL
same,TCID50 Log10/mL,"[1]; confirmatory run (Day 2, extra DMEM and coverslip), PCA on plastic, 10 min",4.25 TCID50 Log10/mL and 4.50 TCID50 Log10/mL
same,TCID50 Log10/mL,"[1]; confirmatory run (Day 2, extra DMEM and coverslip), PCA on plastic, 60 min",3.50 TCID50 Log10/mL and 3.75 TCID50 Log10/mL
same,virucidal effect on the SARS CoV2 virus,"[1]; in 10 minutes, virus droplet on PCA coating, aqueous environment",virucidal effect
same,TCID50 Log10/mL,"[1]; initial run (Day 1), PCA on cloth (N95 top layer), 10 min incubation",2.75 TCID50 Log10/mL
same,log difference,"[1]; initial run (Day 1), PCA on cloth, 10 min",−1.25 log
same,Log average,"[1]; initial run (Day 1), PCA on cloth, 10 min incubation",2.75 TCID50 Log10/mL
same,log difference,"[1]; initial run (Day 1), PCA on cloth, 60 min",−1.00 log
same,Log average,[1]; [11],2.75 TCID50 Log10/mL
same,TCID50 Log10/mL,[1]; [11],2.50 TCID50 Log10/mL and 3.00 TCID50 Log10/mL
same,log difference,"[1]; initial run (Day 1), PCA on mesh, 10 min",−0.25 log
same,Log average,"[1]; initial run (Day 1), PCA on mesh, 10 min incubation",3.38 TCID50 Log10/mL
same,log difference,"[1]; initial run (Day 1), PCA on mesh, 60 min",−2.00 log
same,Log average,[1]; [12],1.50 TCID50 Log10/mL
same,TCID50 Log10/mL,[1]; [12],1.00 TCID50 Log10/mL and 2.00 TCID50 Log10/mL
same,log difference,"[1]; initial run (Day 1), PCA on plastic, 10 min",−0.63 log
same,Log average,[1]; [13],3.75 TCID50 Log10/mL
same,TCID50 Log10/mL,[1]; [13],3.75 TCID50 Log10/mL
same,log difference,"[1]; initial run (Day 1), PCA on plastic, 60 min",−1.13 log
same,Log average,[1]; [14],2.88 TCID50 Log10/mL
same,TCID50 Log10/mL,[1]; [14],3.25 TCID50 Log10/mL and 2.50 TCID50 Log10/mL
same,TCID50 Log10/mL,"[1]; initial run (Day 1), PCA on wire mesh, 10 min incubation",3.50 TCID50 Log10/mL and 3.25 TCID50 Log10/mL
same,Log Reduction to Virus Controls,[2]; [15],2.45
same,Percent Log Reduction,[2]; [15],99.65%
same,Average Log10 TCID50,[2]; [16],2.10
same,Average TCID50,[2]; [16],182.4589
same,,[2]; [16],0.03162 and 0.05012 and 0.3162
same,Log10 TCID50,[2]; [16],2.50 and 2.30 and 1.50
same,TCID50,[2]; [16],316.2278 and 199.5262 and 31.62
same,Log Reduction to Virus Controls,[2]; [17],3.94
same,Percent Log Reduction,[2]; [17],99.99%
same,Average Log10 TCID50,[2]; plastic coupon coated with PCA,1.91
same,Average TCID50,[2]; plastic coupon coated with PCA,88
same,,[2]; plastic coupon coated with PCA,0.1995 and 0.07943 and 0.1136
same,Log10 TCID50,[2]; plastic coupon coated with PCA,1.70 and 2.10 and 1.94
same,TCID50,[2]; plastic coupon coated with PCA,50.12 and 125.8925 and 87.99
same,Log Reduction to Virus Controls,[2]; [18],2.93
same,Percent Log Reduction,[2]; [18],99.88%
same,Average Log10 TCID50,[2]; [19],2.37
same,Average TCID50,[2]; [19],298.9493
same,,[2]; [19],0.01995 and 0.1259 and 0.03162
same,Log10 TCID50,[2]; [19],2.70 and 1.90 and 2.50
same,TCID50,[2]; [19],501.1872 and 79.43 and 316.2278
same,solubility in water,[3],approximately 10 mg/ml
same,LD50,[4],800 mg/kg
